How the values were obtained:
[1] = Aqueous solubility of the compound in simulated gastric fluid at pH 1.5; format: ADME; details: simulated gi fluid
[2] = Aqueous solubility of the compound in hepes buffer at pH 7.4; format: physicochemical
[3] = Aqueous solubility of the compound in simulated intestinal fluid at pH 6.8; format: ADME; details: simulated gi fluid
[4] = Aqueous solubility of the compound in simulated intestinal fluid at pH 4.5; format: ADME; details: simulated gi fluid

Row | solubility [1] | solubility [2] | solubility [3] | solubility [4] | Structure (SMILES)
1 | Insoluble | Insoluble | Insoluble | Insoluble | CCCS(=O)(=O)Nc1ccc(F)c(C(=O)c2c[nH]c3ncc(-c4ccc(NS(C)(=O)=O)cc4)cc23)c1F
2 | Insoluble | Soluble | Soluble | Soluble | O=C(c1c(F)ccc(NS(=O)(=O)c2cccc(F)c2)c1F)c1c[nH]c2nccc(Cl)c12
3 | Soluble | Soluble | Soluble | Soluble | N#Cc1cnc2[nH]cc(C(=O)c3c(F)ccc(NS(=O)(=O)c4ccccc4F)c3F)c2c1
4 | Insoluble | Insoluble | Insoluble | Insoluble | C#Cc1cnc2[nH]cc(C(=O)c3c(F)ccc(NS(=O)(=O)CCC)c3F)c2c1
5 | Insoluble | Insoluble | Insoluble | Insoluble | CCCS(=O)(=O)Nc1ccc(F)c(C(=O)c2c[nH]c3ncc(-c4ccc(C#CCN(CC)CC)nc4)cc23)c1F
6 | Insoluble | Soluble | Soluble | Soluble | Cc1cnc2[nH]cc(C(=O)c3c(F)ccc(NS(=O)(=O)c4ccccc4F)c3F)c2c1
7 | Insoluble | Soluble | Insoluble | Insoluble | COc1ncc(-c2cnc3[nH]cc(C(=O)c4c(F)ccc(NS(=O)(=O)c5cccc(F)c5)c4F)c3c2)cn1
8 | Soluble | Insoluble | Insoluble | Soluble | CCCS(=O)(=O)Nc1ccc(F)c(C(=O)c2c[nH]c3ncc(-c4ccc(C)nc4)cc23)c1F
9 | Soluble | Soluble | Soluble | Insoluble | Cc1cnc2[nH]cc(C(=O)c3c(F)ccc(NS(=O)(=O)c4cc(F)ccc4F)c3F)c2c1
10 | Insoluble | Soluble | Soluble | Insoluble | N#Cc1cnc2[nH]cc(C(=O)c3cccc(NS(=O)(=O)c4cc(F)ccc4F)c3F)c2c1
11 | Insoluble | Insoluble | Insoluble | Insoluble | CCCS(=O)(=O)Nc1ccc(F)c(C(=O)c2c[nH]c3ncc(-c4ccc(S(=O)(=O)N(C)C)cc4)cc23)c1F
12 | Insoluble | Insoluble | Insoluble | Insoluble | CCCS(=O)(=O)Nc1ccc(F)c(C(=O)c2c[nH]c3ncc(-c4cnc(SC)nc4)cc23)c1F
13 | Soluble | Insoluble | Insoluble | Soluble | CCCS(=O)(=O)Nc1ccc(F)c(C(=O)c2c[nH]c3ncc(-c4ccc(OCCCN(C)C)nc4)cc23)c1F
14 | Insoluble | Insoluble | Insoluble | Insoluble | CCCS(=O)(=O)Nc1cccc(C(=O)c2c[nH]c3ncc(-c4cnc(N(C)C)nc4)cc23)c1F
15 | Insoluble | Insoluble | Insoluble | Insoluble | CCCS(=O)(=O)Nc1ccc(F)c(C(=O)c2c[nH]c3ncc(-c4ccc(C(=O)NC)nc4)cc23)c1F
16 | Soluble | Insoluble | Insoluble | Soluble | CCCS(=O)(=O)Nc1ccc(F)c(C(=O)c2c[nH]c3ncc(-c4cnn(CCN5CCOCC5)c4)cc23)c1F
17 | Soluble | Soluble | Soluble | Soluble | COc1ccnc2[nH]cc(C(=O)c3c(F)ccc(NS(=O)(=O)c4cc(F)ccc4F)c3F)c12
18 | Soluble | Soluble | Soluble | Soluble | O=C(c1c(F)ccc(NS(=O)(=O)c2cccnc2)c1F)c1c[nH]c2ncc(Cl)cc12
19 | Soluble | Insoluble | Insoluble | Insoluble | CCCS(=O)(=O)Nc1ccc(F)c(C(=O)c2c[nH]c3ncc(-c4cnc(N(C)C)nc4)cc23)c1F
20 | Insoluble | Insoluble | Insoluble | Insoluble | COc1ncc(-c2cnc3[nH]cc(C(=O)c4c(F)ccc(NS(=O)(=O)c5cc(F)ccc5F)c4F)c3c2)cn1
21 | Insoluble | Soluble | Soluble | Insoluble | N#Cc1cnc2[nH]cc(C(=O)c3cccc(NS(=O)(=O)c4ccccc4)c3F)c2c1
22 | Insoluble | Insoluble | Insoluble | Insoluble | CCCS(=O)(=O)Nc1ccc(F)c(C(=O)c2c[nH]c3ncc(-c4ccc(S(C)(=O)=O)cc4)cc23)c1F

Row | solubility [1] | solubility [2] | solubility [3] | solubility [4] | Structure (SMILES)
23 | Soluble | Insoluble | Insoluble | Soluble | CCCS(=O)(=O)Nc1ccc(F)c(C(=O)c2c[nH]c3ncc(-c4ccc(OCCCN5CCOCC5)nc4)cc23)c1F
24 | Insoluble | Insoluble | Insoluble | Insoluble | CCCS(=O)(=O)Nc1ccc(F)c(C(=O)c2c[nH]c3ncc(-c4cn[nH]c4)cc23)c1F
25 | Insoluble | Insoluble | Insoluble | Insoluble | CCCS(=O)(=O)Nc1ccc(F)c(C(=O)c2c[nH]c3ncc(-c4ccc(N5CCCC5)nc4)cc23)c1F
26 | Soluble | Insoluble | Insoluble | Insoluble | CCCS(=O)(=O)Nc1ccc(F)c(C(=O)c2c[nH]c3ncc(-c4cnc(N5CCOCC5)nc4)cc23)c1F
27 | Insoluble | Insoluble | Insoluble | Insoluble | COc1ncc(-c2cnc3[nH]cc(C(=O)c4c(F)ccc(NS(=O)(=O)c5ccccc5F)c4F)c3c2)cn1
28 | Soluble | Soluble | Soluble | Insoluble | CCCS(=O)(=O)Nc1ccc(F)c(C(=O)c2c[nH]c3ncc(-c4ccc(N(C)C)nc4)cc23)c1F
29 | Soluble | Soluble | Soluble | Soluble | CCCS(=O)(=O)Nc1ccc(F)c(C(=O)c2c[nH]c3ncc(-c4cncnc4)cc23)c1F
30 | Insoluble | Insoluble | Insoluble | Insoluble | CCCS(=O)(=O)Nc1ccc(F)c(C(=O)c2c[nH]c3ncc(-c4ccnc(F)c4)cc23)c1F
31 | Insoluble | Soluble | Insoluble | Insoluble | COc1cnc2[nH]cc(C(=O)c3c(F)ccc(NS(=O)(=O)c4ccccc4F)c3F)c2c1
32 | Soluble | Soluble | Soluble | Soluble | O=C(c1c(F)ccc(NS(=O)(=O)c2ccccc2F)c1F)c1c[nH]c2nccc(Cl)c12
33 | Soluble | Insoluble | Insoluble | Soluble | CCCS(=O)(=O)Nc1ccc(F)c(C(=O)c2c[nH]c3ncc(-c4ccc(OCCN5CCOCC5)nc4)cc23)c1F
34 | Insoluble | Soluble | Insoluble | Soluble | CCCS(=O)(=O)Nc1ccc(F)c(C(=O)c2c[nH]c3ncc(C#CCOC)cc23)c1F
35 | Soluble | Soluble | Soluble | Soluble | CCCS(=O)(=O)Nc1ccc(F)c(C(=O)c2c[nH]c3ncc(-c4cnc(C)nc4)cc23)c1F
36 | Soluble | Soluble | Soluble | Soluble | N#Cc1cnc2[nH]cc(C(=O)c3cccc(NS(=O)(=O)c4cccnc4)c3F)c2c1
37 | Insoluble | Soluble | Insoluble | Soluble | CCCS(=O)(=O)Nc1ccc(F)c(C(=O)c2c[nH]c3ncc(-c4ccc(OCCN5CCCC5)nc4)cc23)c1F
38 | Soluble | Soluble | Soluble | Soluble | Cc1cnc2[nH]cc(C(=O)c3c(F)ccc(NS(=O)(=O)c4cccnc4)c3F)c2c1
39 | Soluble | Insoluble | Insoluble | Insoluble | CCCS(=O)(=O)Nc1ccc(F)c(C(=O)c2c[nH]c3ncc(-c4cnc(N5CCCC5)nc4)cc23)c1F
40 | Soluble | Soluble | Soluble | Soluble | COc1ccnc2[nH]cc(C(=O)c3c(F)ccc(NS(=O)(=O)c4cccc(F)c4)c3F)c12
41 | Insoluble | Soluble | Soluble | Insoluble | O=C(c1c(F)ccc(NS(=O)(=O)c2cc(F)ccc2F)c1F)c1c[nH]c2ncc(Cl)cc12
42 | Insoluble | Insoluble | Insoluble | Insoluble | CCCS(=O)(=O)Nc1cccc(C(=O)c2c[nH]c3ncc(-c4cnc(OC)nc4)cc23)c1F
43 | Insoluble | Insoluble | Insoluble | Soluble | CCCS(=O)(=O)Nc1ccc(F)c(C(=O)c2c[nH]c3ncc(-c4ccc(OCCCN5CCCC5)nc4)cc23)c1F
44 | Insoluble | Soluble | Insoluble | Insoluble | COc1ncc(-c2cnc3[nH]cc(C(=O)c4c(F)ccc(NS(=O)(=O)c5c(F)cccc5F)c4F)c3c2)cn1
